Measurements as given in PubChem BioAssay (NCI).
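A five-concentration, 48-hour dose response in 96-well plates underlies each endpoint, interpolated linearly between surrounding concentrations. TGI denotes the concentration required for complete inhibition of growth.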

Assays:
Assay in all cases: inhibition of tumour cell growth, NCI panel, 48 h
[1] = system: CAKI-1 renal
[2] = system: EKVX NSCLC
[3] = system: HCC-2998 colon
[4] = system: HCT-15 colon
[5] = system: HL-60(TB) leukemia
[6] = system: HOP-92 NSCLC
[7] = system: IGROV1 ovarian
[8] = system: K-562 leukemia
[9] = system: KM12 colon
[10] = system: LOX IMVI melanoma
[11] = system: M19-MEL melanoma
[12] = system: MOLT-4 leukemia
[13] = system: NCI-H23 lung
[14] = system: NCI-H522 lung
[15] = system: NCI/ADR-RES ovarian
[16] = system: OVCAR-3 ovarian
[17] = system: SK-MEL-28 melanoma
[18] = system: SK-MEL-5 melanoma
[19] = system: SK-OV-3 ovarian
[20] = system: UO-31 renal

Compound	TGI [1] [µM]	TGI [2] [µM]	TGI [3] [µM]	TGI [4] [µM]	TGI [5] [µM]	TGI [6] [µM]	TGI [7] [µM]	TGI [8] [µM]	TGI [9] [µM]	TGI [10] [µM]	TGI [11] [µM]	TGI [12] [µM]	TGI [13] [µM]	TGI [14] [µM]	TGI [15] [µM]	TGI [16] [µM]	TGI [17] [µM]	TGI [18] [µM]	TGI [19] [µM]	TGI [20] [µM]
CC(C)=CCC/C(C)=C/CCC1(C)C=Cc2c(c3ccccc3oc2=O)O1 (stereo not drawn)	33	33.9	31.8	30.2	> 75.8	25	30.8	> 89	33.2	32.4	31.4	> 72.7	28.9	29.3	31.1	32.7	29.9	28.1	50.8	28.8
O=C(O)C12CC3CC(C1)C2C=C3P(=O)(O)O (stereo not drawn)	> 100	> 100	> 100	> 100	> 100	> 100	> 100	> 100	> 100	> 100	> 100	> 100	> 100	> 100		> 100	> 100		> 100	> 100
COc1cc(/C=C/C2=C(C#N)C(=O)OC2(C)C)ccc1O	> 100	> 100	> 100	93.8	> 100	> 100	> 100	> 100	> 100	44.2	> 100	> 100	> 100	44.4		> 100	> 100	> 100	> 100	> 100
Cc1cn(C2CC(O)C(Cn3nncc3Cn3ncc(=O)[nH]c3=O)O2)c(=O)[nH]c1=O (stereo not drawn)	> 100	> 100	> 100	> 100		> 100	> 100		> 100	> 100		> 100	> 100		> 100	> 100	> 100	> 100	> 100	> 100
C=CCNC(=O)CN(CC(=O)OC)C1CCCCC1N(CC(=O)OC)CC(=O)OC (stereo not drawn)	> 100	> 100	> 100	> 100	> 100	> 100	> 100	> 100	> 100	> 100		> 100	> 100	> 100	> 100	> 100	> 100	> 100	> 100	> 100
Cc1c(C2=NN=C(N=Nc3c(O)cccc3O)/C2=C/c2ccccc2)c(=O)n(-c2ccccc2)n1C	> 100	> 100	> 100	> 100	> 100	> 100	> 100	> 100	> 100	> 100	> 100	> 100	> 100	> 100	> 100	> 100	> 100	> 100	> 100	> 100
CC(C)=CC(=O)OC1C2C(C)=CC(O)C(O)C2(C)C2C3(O)OCC24C(CC(=O)OC14)C(C)C3O (stereo not drawn)	13.9	0.642	0.572	6.84	0.409	0.26	0.706	1.79	0.622	0.325	0.127	1.31	0.387	0.103	123	0.171	0.199	0.064		8.57
COc1cc(C(=O)C2CC3(CCC2(O)c2cc(OC)c(OC)c(OC)c2)CC(=O)Nc2ccccc2C3=O)cc(OC)c1OC (stereo not drawn)	> 100	> 100	> 100	> 100	78.8	> 100	> 100	> 100		> 100		> 100	> 100		> 100	> 100	> 100	81.2	> 100	> 100
Nc1n[nH]c(CCCCCCCc2nc(N)n[nH]2)n1		> 100	> 100	> 100	> 100			> 100	> 100	> 100	> 100	> 100	> 100	> 100		> 100	> 100		> 100	> 100
